According to patent US10538561B2, “Peptide for treating inflammatory diseases” (priority 2015, dated 2020):
Marks after values point to notes of the source that are not given here.

How the values were obtained:
[1] = tested on: Human Keratinocytes (HaCaT); test: Cell viability (MTT assay) in HaCaT; format: cell-based; conditions: for IC50 value / cytotoxicity: HaCaT
Experimental: (§1) Cell Lines/Cells: Human Keratinocytes (HaCaT); Human melanoma (SK-MEL-28); Human PBMCs. Test Item: IS181 Treatment regimen: Single addition—24 h, ^#Multiple additions (3)−72 h; Concentration range: 1 ng/ml-2 mg/ml (triplicate wells); Sera Condition: […] Method of estimation: MTT assay. […] Positive control: Triton-X-100, Doxorubicin Hydrochloride.

[2] = Cell viability (MTT assay) in HaCaT; format: cell-based, Human; conditions: human, HaCaT keratinocytes, HaCaT, 1% FBS
Experimental: as §1

Caspase-3 enzyme = test: Caspase-3 assay; format: cell-based, Human; conditions: HaCaT, 48 h
Experimental: Cell lines: Human Keratinocytes (HaCaT); Test Item (TI): IS 181; Treatment regimen: Multiple additions (2)—48 hours; Concentration range: 100 μg/ml to 5000 μg/ml (Duplicate wells); Sera Condition: Medium containing 1% FBS. […] Cells were lysed and protein was estimated. The above lysates were processed further for Caspase-3 enzyme activity assay using colorimetric based method. Percentage induction of Caspase-3 enzyme activation with respect to untreated; Positive control: Anthralin. IS 181 led to induction of Caspase-3 enzyme activation in HaCaT cells at all the concentrations tested except at 100 μg/ml. […] (FIGS. 7A-7B)

[3] = tested on: Human endothelial cells (EA.hy 926); test: Inhibition of endothelial cell migration (wound); format: cell-based; conditions: for % Inhibition of migration with respect to respective 0 h control: EA.hy926, 14 h
Experimental: Cell line: Human endothelial cells (EA.hy 926); test item: IS 181; treatment regimen: single addition; concentration range: 0.1 μg/ml-1 mg/ml; sera condition: medium containing 10% FBS. […] The cells were then subjected to serum starved with medium containing 1% FBS for 24 hours. 24 hours post serum starvation, the wounds (straight line) were created in the middle of the well using a sterile 200 μl pipette tip. Cells were washed twice using DMEM followed by treatment with different concentrations of IS 181 in DMEM containing 10% FBS. Images of wound were taken at 0 h and 14 h at three points in single well and distance of wound closure was measured using Image J software. End point: image analysis of cell migration of different concentrations of IS 181 treated cells at 0 hour and after 14 hours of treatment. Percentage inhibition in cell migration of different concentrations of IS 181 treated cells were calculated after 14 h of treatment with respect to respective 0 hours (FIG. 13). […] (FIGS. 14A-14B).

TSLP = test: LPS+PMA stimulated TSLP secretion in HaCaT; format: cell-based, Human; conditions: for TSLP % decrease with respect to LPS + PMA / TSLP Conc (pg/ml): HaCaT + LPS + PMA, 24 h
Experimental: Effect on pro-inflammatory cytokines against TNF-α/LPS+PMA stimulation: TNF-α; IFN-γ; TARC; TSLP; IL-6; IL-8: Cell lines: Human keratinocytes (HaCaT); test item (TI); IS181; experimental steps: pre-treatment of cells with TI for 2 hours; stimulation with TNF-α: 20 ng/ml; stimulation with LPS+PMA-10 μg/ml LPS+40 ng/ml PMA; supernatant collection for cytokine analysis after 24 hours; concentration range: 0.1 μg/ml-100 μg/ml (duplicate wells); cytokines: TNF-α; IFN-γ; TARC; TSLP; IL-6; IL-8. Method of estimating cytokines: ELISA; positive control: dexamethasone.
Cell line: HaCaT (Human Keratinocytes); TI Treatment regimen: Pretreatment for 2 h; TI Concentration range: 0.1 μg/ml-100 μg/ml (duplicate wells); TNF-α stimulation: 20 ng/ml; LPS+PMA stimulation: 10 μg/ml LPS+40 ng/ml PMA; Time point for supernatants collection: 24 h; Method of estimation: ELISA; Positive control: Dexamethasone

[4] = tested on: Human Keratinocytes (HaCaT); test: DNA fragmentation assay in HaCaT; format: cell-based; conditions: 48 h
Experimental: Cells were lysed and fragmented DNA was precipitated using PEG/NaCl solution. The fragmented DNA was incubated with 0.2 μg/ml of Hoechst 33258 dye and fluorescence was read at 360 ex/460 em. End point: Percentage induction of DNA fragmentation with respect to untreated Positive control. Anthralin. IS 181 led to induction of DNA fragmentation in HaCaT cells at all the concentrations tested except at 100 μg/ml. […] The overall effect of IS 181 on induction of DNA fragmentation with respect to untreated in HaCaT cells ranged from −18.8% to 83.3%. (FIG. 8 and Table-6).

In the case of “H-WVQRVVEKFLK-OH [IS181, H-Trp-Val-Gln-Arg-Val-Val-Glu-Lys-Phe-Leu-Lys-OH]”, the IC50 ([1]; 24 h) is reported as 470 µM, the “Selectivity Index -IC50 (PBMC)/IC50 (HaCaT/SK-MEL-28 cells)” value ([1]; 24 h) is reported as 3 and the “selectivity of cytotoxic activity against human keratinocytes” value ([1]; 24 h) is reported as “selective cytotoxic activity”. For the same substance, the IC50 ([1]; 72 h) was 290 µM, the “Selectivity Index -IC50 (PBMC)/IC50 (HaCaT/SK-MEL-28 cells)” value ([1]; 72 h) was 2 and the IC50 value ([1]; 24 h) was 670 µg/mL. For the same substance, the cytotoxicity ([1]; 24 h, at concentrations 2 mg/ml) was 87%-91%, the IC50 value ([1]; 72 h) was 420 µg/mL and the cytotoxicity ([1]; 72 h, concentrations ≥0.5 mg/ml) was 58%-90%. For the same substance, the cytotoxicity at 24 h, 0.1 μg/ml ([2]; 24 h, 0.1 μg/ml) was -1.4%, the cytotoxicity at 24 h, 0.5 μg/ml ([2]; 24 h, 0.5 μg/ml) was -4.61% and the cytotoxicity at 24 h, 1 μg/ml ([2]; 24 h, 1 μg/ml) was 4.88%. It also gave a cytotoxicity at 24 h, 5 μg/ml ([2]; 24 h, 5 μg/ml) of 8.43%, a cytotoxicity at 24 h, 10 μg/ml ([2]; 24 h, 10 μg/ml) of 5.75% and a cytotoxicity at 24 h, 50 μg/ml ([2]; 24 h, 50 μg/ml) of 1.79%. It also gave a cytotoxicity at 24 h, 100 μg/ml ([2]; 24 h, 100 μg/ml) of -0.58%, a cytotoxicity at 24 h, 500 μg/ml ([2]; 24 h, 500 μg/ml) of 18.9% and a cytotoxicity at 24 h, 1000 μg/ml ([2]; 24 h, 1000 μg/ml) of 87.8%. It also gave a cytotoxicity at 24 h, 2000 μg/ml ([2]; 24 h, 2000 μg/ml) of 91.3%, a cytotoxicity at 72 h, 0.1 μg/ml ([2]; 72 h, 0.1 μg/ml) of -56.2% and a cytotoxicity at 72 h, 0.5 μg/ml ([2]; 72 h, 0.5 μg/ml) of -75.4%. It also gave a cytotoxicity at 72 h, 1 μg/ml ([2]; 72 h, 1 μg/ml) of -66.1%, a cytotoxicity at 72 h, 5 μg/ml ([2]; 72 h, 5 μg/ml) of -37.5% and a cytotoxicity at 72 h, 10 μg/ml ([2]; 72 h, 10 μg/ml) of -44.5%. The cytotoxicity at 72 h, 50 μg/ml ([2]; 72 h, 50 μg/ml) was -33%, the cytotoxicity at 72 h, 100 μg/ml ([2]; 72 h, 100 μg/ml) was -42.5% and the cytotoxicity at 72 h, 500 μg/ml ([2]; 72 h, 500 μg/ml) was 58.5%. For the same substance, the cytotoxicity at 72 h, 1000 μg/ml ([2]; 72 h, 1000 μg/ml) was 91%, the cytotoxicity at 72 h, 2000 μg/ml ([2]; 72 h, 2000 μg/ml) was 89.4% and the “Percentage induction of caspase-3 enzyme activation with respect to untreated” value (shortened to “Percentage induction”) (Caspase-3 enzyme; 100 μg/ml) was −20.37. For the same substance, the “Percentage induction” value (Caspase-3 enzyme; 500 μg/ml) was 7.41, the “Percentage induction” value (Caspase-3 enzyme; 1000 μg/ml) was 29.63 and the “Percentage induction” value (Caspase-3 enzyme; 2000 μg/ml) was 50. The “inhibition of migration of EA.hy926 cells” value ([3]; 10 μg/ml-1 mg/ml) was 17%-54%, the “% Inhibition of migration with respect to respective 0 h control” value (from here on “% Inhibition of migration”) ([3]; 0.1 μg/ml) was 0% and the “% Inhibition of migration” value ([3]; 1 μg/ml) was 0%. For the same substance, the “% Inhibition of migration” value ([3]; 10 μg/ml) was 17%, the “% Inhibition of migration” value ([3]; 50 μg/ml) was 34% and the “% Inhibition of migration” value ([3]; 100 μg/ml) was 41%. For the same substance, the “% Inhibition of migration” value ([3]; 1 mg/ml) was 54%, the “secretion of TSLP inhibited as compared to LPS+PMA stimulated cells” value (TSLP; 0.1 μg/ml-100 μg/ml) was 46.4%-53.6% and the TSLP inhibition (TSLP; HaCaT) was “good extent of TSLP and IL-8 inhibition”. The “TSLP % decrease with respect to LPS + PMA” value (“TSLP % decrease” below) (TSLP; 0.1 μg/ml) was 49.4%, the “TSLP Conc (pg/ml)” value (TSLP; 0.1 μg/ml) was 62.9*** pg/ml and the “TSLP % decrease” value (TSLP; 1 μg/ml) was 47.9%. The “TSLP Conc (pg/ml)” value (TSLP; 1 μg/ml) was 64.7*** pg/ml, the “TSLP % decrease” value (TSLP; 5 μg/ml) was 46.4% and the “TSLP Conc (pg/ml)” value (TSLP; 5 μg/ml) was 66.6*** pg/ml. The “TSLP % decrease” value (TSLP; 10 μg/ml) was 53.6%, the “TSLP Conc (pg/ml)” value (TSLP; 10 μg/ml) was 57.6*** pg/ml and the “TSLP % decrease” value (TSLP; 100 μg/ml) was 49.8%. For the same substance, the “TSLP Conc (pg/ml)” value (TSLP; 100 μg/ml) was 62.4*** pg/ml, the “% induction of DNA fragmentation” value ([4]; 100 μg/ml) was −18.8% and the “overall effect on induction of DNA fragmentation with respect to untreated” value ([4]; 100 μg/ml to 5000 μg/ml) was −18.8% to 83.3%. For the same substance, the “% induction of DNA fragmentation” value ([4]; 500 μg/ml) was 35.4%, the “% induction of DNA fragmentation” value ([4]; 1000 μg/ml) was 35.4% and the “% induction of DNA fragmentation” value ([4]; 2000 μg/ml) was 27.1%. For the same substance, the “% induction of DNA fragmentation” value ([4]; 5000 μg/ml) was 83.3%.
